Earlier results as cited in US20050107870A1, “Medical device with multiple coating layers” (priority 2003, published 2005).
Structures can show the parent of a compound that is named as a salt.

Tests used:
[1] = hydrophilic magnetically responsive microspheres
cancer cells = conditions: exposed to low-level electromagnetic fields present in some North American homes

## COc1cccc2c1C(=O)c1c(O)c3c(c(O)c1C2=O)C[C@@](O)(C(=O)CO)C[C@@H]3O[C@H]1C[C@H](N)[C@H](O)[C@H](C)O1 [adriamycin, doxorubicin hydrochloride]
[1]
  incorporated concentration of therapeutic agent in microspheres: up to 50 wt %

## COc1ccc2[nH]cc(CCNC(C)=O)c2c1 [melatonin]
Breast cancer cells; cells exposed to 2 milligauss magnetic fields
  growth of breast cancer cells: inhibit the growth of breast cancer cells
Breast cancer cells; cells in a 12 milliGauss field
  growth-inhibiting activity on breast cancer cells: essentially reased

## CC/C(=C(\c1ccccc1)c1ccc(OCCN(C)C)cc1)c1ccccc1 [tamoxifen]
Cancer cells
  ability to halt the proliferation of cancer cells: lost its ability to halt the proliferation of cancer cells
